Key:
Format in all cases: in vivo
[1] = system: Tobacco Budworm [Heliothis virescens (Fabricius)] eggs; experiment: Tobacco budworm egg test (TBW-E); conditions: percent in solution
[2] = system: Aster Leafhopper [Macrosteles fascifrens (Stal)]; experiment: Aster leafhopper test (LH); conditions: adults/nymphs, 48 hours, percent in solution
[3] = system: Beet Armyworm (Spodoptera exigua); experiment: Beet armyworm test (BAW)
Protocol: (§1) The compounds in Tables 1 and 2 above were tested for insecticidal activity using the following testing procedures. LC50 values, based on the results of these tests and calculated according to dosage-mortality curves, are expressed in Table 3.
Beet Armyworm (Spodoptera exigua)
Test compounds were diluted in a 50-50 acetone-water solution. Young leaves of sugar beets (Beta vulgaris) were immersed in the test solutions for 2-3 seconds and placed on a wire screen to dry. The dried leaves were placed in petri dishes containing a moistened filter paper and infested with five second-instar beet armyworm larvae. The dishes were placed in a high humidity chamber. Mortality of the larvae was recorded five days later. Test concentrations ranged from 0.1% downward. The LC-50 values are expressed below in Table 3 under the heading "BAW" in terms of percent of the test compound in solution.

[4] = system: Maize weevil [Sitophilus Zeamais (Motschulsky)]; experiment: Maize weevil test (MW); conditions: adult weevils, treated corn seeds, 48 hours, percent in solution
Procedure, shortened: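 Adult weevils (10) were placed with four corn seeds that had been dipped 2-3 s in compound dissolved in 50:50 acetone:water, then dried, and held at about 25° C. Mortality was scored at 48 h. LC50 was taken from dosage-mortality curves and expressed as percent compound in solution, from a 0.01% top concentration.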

[5] = system: Tobacco Budworm [Heliothis virescens (Fabricius)]; experiment: Tobacco budworm contact test (TBW-C); conditions: second-instar larvae, 5 days, percent in solution
Protocol: as §1
Tobacco Budworm [Heliothis virescens (Fabricius)]
(a) Contact: Test compounds were diluted in a 50-50 acetonewater solution. Cotton (Gossypium sp.) cotyledons were immersed in the test solutions for 2-3 seconds and placed on a wire screen to dry. The dried leaves were placed in petri dishes containing a moistened piece of filter paper and infested with 5 second-instar tobacco budworm larvae. The dishes were placed in a high humidity chamber for 5 days, and percent mortality of the larvae recorded. Test concentrations ranged from 0.1% downward. The LC-50 values are expressed below in Table 3 under the heading "TBW-C" in terms of percent of the test compound in the solution.

[6] = system: Cabbage Looper [Trichoplusia ni (Hubner)]; experiment: Cabbage looper test (CL); conditions: second-instar larvae, 3-5 days, percent in solution
[7] = system: Housefly [Musca domestica]; experiment: Housefly insecticidal test (HF); conditions: per 25 female houseflies, 48 hours
[8] = second-instar larvae, five days, percent in solution

SMILES | LC50 TBW E [1] | LC50 LH [2] | LC50 BAW [3, 8] | LC50 MW [4] | LC50 TBW C [5] | LC50 CL [6] | LC50 HF [7] | LC50 BAW ([3]; 120 h)
Clc1cccc(N=C(OCc2cccc(Oc3ccccc3)c2)C(Cl)Cl)c1 [Compound 1] | 0.05% | > 0.05% | 0.009% | > 0.01% | 0.06% | 0.005% | 4.8 µg | 
CC(C)C(=Nc1ccc(Cl)cc1)OCc1cccc(Oc2ccccc2)c1 [Compound 2] | 0.04% | 0.0003% | 0.01% |  | 0.0009% | 0.006% | 4.5 µg | 
CC(Cl)(Cl)C(=Nc1ccc(Cl)cc1)OCc1cccc(Oc2ccccc2)c1 [Compound 3] | > 0.1% | > 0.05% | 0.015% | > 0.01% | 0.009% | 0.012% | 50 µg | 
Clc1ccc(N=C(OCc2cccc(Oc3ccccc3)c2)C(Cl)Cl)c(Cl)c1 [Compound 4] | > 0.1% | > 0.05% | 0.04% |  | 0.05% | 0.007% | 100 µg | 
CC1(C(=Nc2ccc(Cl)cc2)OCc2cccc(Oc3ccccc3)c2)CC1 [Compound 5] | 0.05% | > 0.05% | 0.025% | > 0.01% | 0.008% | 0.005% | 21 µg | 
CC(C)C(=Nc1ccc(Cl)c(Cl)c1)OCc1cccc(Oc2ccccc2)c1 [Compound 9] | 0.02% | 0.0003% | 0.0005% | > 0.01% | 0.0008% | 0.001% | 14 µg | 
Clc1ccc(N=C(OCc2cccc(Oc3ccccc3)c2)C(Cl)Cl)cc1 [Compound 29] | 0.01% | 0.003% | 0.003% | > 0.01% | 0.001% | 0.002% | 5 µg | 
ClCC(=Nc1ccc(Cl)cc1)OCc1cccc(Oc2ccccc2)c1 [Compound 31] | > 0.1% | > 0.05% | 0.08% | > 0.01% | 0.01% | 0.05% | > 100 µg | 
Clc1ccc(N=C(OCc2cccc(Oc3ccccc3)c2)C2CC2)cc1 [Compound 32] | 0.1% | > 0.05% |  | > 0.01% | 0.006% | 0.003% | 37 µg | 0.03%
CC(Cl)C(=Nc1ccc(Cl)cc1)OCc1cccc(Oc2ccccc2)c1 (stereo not drawn) [Compound 33] | > 0.1% | > 0.05% | 0.02% | > 0.01% | 0.0025% | 0.01% | 17 µg | 
CC(=Nc1ccccc1)OCc1cccc(Oc2ccccc2)c1 [Compound 42] | > 0.1% | > 0.05% | > 0.1% | > 0.01% | > 0.1% | > 0.1% | 45 µg | 
Fc1ccc(N=C(OCc2cccc(Oc3ccccc3)c2)C2CC2)cc1 [Compound 45] | 0.08% | > 0.05% |  |  | 0.01% | 0.03% | 30 µg | 0.1%
CC(C)C(=Nc1cccc(F)c1)OCc1cccc(Oc2ccccc2)c1 [Compound 47] | 0.06% | 0.0003% | 0.002% |  | 0.002% | 0.002% | 10 µg | 
CC(C)C(=Nc1ccc(F)cc1F)OCc1cccc(Oc2ccccc2)c1 [Compound 52] | > 0.05% | 0.001% | 0.01% |  | 0.004% | 0.0025% | 8 µg | 
CC(C)C(=Nc1ccc(F)c(F)c1)OCc1cccc(Oc2ccccc2)c1 [Compound 54] | 0.017% | 0.00015% | 0.004% |  | 0.001% | 0.0003% | 3.5 µg | 
FC(F)(F)c1ccc(N=C(OCc2cccc(Oc3ccccc3)c2)C(Cl)Cl)cc1 [Compound 61] | 0.03% | > 0.05% | 0.002% | > 0.01% | 0.03% | 0.001% | 29 µg | 
FC(F)(F)c1ccc(N=C(OCc2cccc(Oc3ccccc3)c2)C2CC2)cc1 [Compound 62] | 0.025% | > 0.05% |  | > 0.01% | 0.0015% | 0.005% | 20 µg | 0.02%
FC(F)(F)Oc1ccc(N=C(OCc2cccc(Oc3ccccc3)c2)C2CC2)cc1 [Compound 63] | 0.05% | 0.0001% |  | > 0.01% | 0.001% | 0.005% | 30 µg | 0.005%
FC(F)(F)Oc1ccc(N=C(OCc2cccc(Oc3ccccc3)c2)C(Cl)Cl)cc1 [Compound 64] | 0.03% | > 0.05% | 0.0025% | > 0.01% | 0.1% | 0.0025% | 11 µg | 
FC(F)(F)c1ccc(N=C(OCc2cccc(Oc3ccccc3)c2)C2CC2)c(Cl)c1 [Compound 65] | > 0.1% | > 0.05% |  |  | 0.1% | < 0.01% | > 100 µg | > 0.1%
CC(C)C(=Nc1ccc(Cl)c(C(F)(F)F)c1)OCc1cccc(Oc2ccccc2)c1 [Compound 71] | 0.065% | 0.002% | 0.0004% |  | 0.0008% | 0.0006% | 50 µg | 
CC(C)C(=Nc1cc(F)cc(C(F)(F)F)c1)OCc1cccc(Oc2ccccc2)c1 [Compound 77] | 0.03% | 0.0002% |  | > 0.01% | 0.0004% | 0.0005% | 10 µg | 0.0004%
CC(C)C(=Nc1cccc(C(F)(F)F)c1)OCc1ccc(F)c(Oc2ccccc2)c1 [Compound 80] | 0.005% | 0.0001% | 0.0018% |  | 0.00075% | 0.0003% | 4.5 µg | 
CC(C)C(=Nc1ccc(C(C)C)cc1)OCc1cccc(Oc2ccccc2)c1 [Compound 144] | 0.05% | 0.0006% | > 0.01% | > 0.01% | 0.006% | 0.002% | 100 µg | 
CC(C)C(=Nc1ccc2c(c1)OC(F)(F)O2)OCc1ccc(F)c(Oc2ccc(F)cc2)c1 [Compound 284] |  | 0.0003% | 0.0025% | 0.0075% | 0.0002% | 0.00005% | 39 µg | 
CC(C)C(=Nc1ccc(F)c(Cl)c1)OCc1cc(Oc2ccc(F)cc2)c(F)cc1F [Compound 343] | > 0.1% |  | > 0.1% | > 0.01% | 0.00025% | 0.00027% | 40 µg | 
CC(C)C(=Nc1ccc(F)c(Cl)c1)OCc1ccc(F)c(Oc2ccc(F)c(F)c2)c1 [Compound 346] | > 0.1% | 0.05% | > 0.1% |  | 0.0002% | > 0.1% | 7.2 µg | 
CC(C)C(=Nc1ccc2c(c1)OC(F)(F)O2)OCc1cccc(Oc2ccc(Cl)cc2)c1 [Compound 450] | 0.015% |  | 0.005% | 0.01% | 0.0001% | 0.00016% | 72 µg | 
